Data on 6 compounds can be found in the NIST ThermoML archive (doi:10.1021/acs.jced.5b00051).

Structures are written as SMILES. ± gives the expanded uncertainty stated by the source.

One data set in a line: molar heat capacity at constant pressure. Particulars: 323.15 K; 101.33 kPa; Liquid; Large sample (1 g) DSC.
Consider `CCOCCOCCO` [3,6-dioxa-1-octanol], for which the “molar heat capacity at constant pressure” value is 309.7 ± 4.8 J/K/mol.
The same measure, in the same setting: to `CCCOCCOCCO` [2-(2-propoxyethoxy)ethanol] belongs 339.4 ± 5.3 J/K/mol; to `CCCCOCCOCCO` [3,6-dioxa-1-decanol], 371.8 ± 5.8 J/K/mol.

Still in this data set, the particulars now being: 325.15 K; 101.33 kPa; Liquid; Large sample (1 g) DSC.
Regarding `CCCCCCCCOCCOCCOCCO` [2-[2-[2-(octyloxy)ethoxy]ethoxy]ethanol], the “molar heat capacity at constant pressure” value turned out to be 589 ± 9.1 J/K/mol.
With `CCCOCCO` [2-propoxyethanol], the “molar heat capacity at constant pressure” value is 253.4 ± 3.9 J/K/mol.
For `COCCOCCOCCOCCO` [3,6,9,12-tetraoxatridecanol], the “molar heat capacity at constant pressure” value stood at 455.4 ± 7.1 J/K/mol.
Still for that read-out and setting: to `CCOCCOCCO` [3,6-dioxa-1-octanol] belongs 310.4 ± 4.8 J/K/mol.
`CCCOCCOCCO` [2-(2-propoxyethoxy)ethanol]: the “molar heat capacity at constant pressure” value was found to be 340.3 ± 5.3 J/K/mol.
The same measure, in the same setting: to `CCCCOCCOCCO` [3,6-dioxa-1-decanol] belongs 372.8 ± 5.8 J/K/mol.

Staying with this data set, now noted: 327.15 K; 101.33 kPa; Liquid; Large sample (1 g) DSC.
As for `CCCCCCCCOCCOCCOCCO` [2-[2-[2-(octyloxy)ethoxy]ethoxy]ethanol], the “molar heat capacity at constant pressure” value was 590.3 ± 9.1 J/K/mol.
As for `CCCOCCO` [2-propoxyethanol], the “molar heat capacity at constant pressure” value came to 254.3 ± 3.9 J/K/mol.
The same measure, in the same setting: for `COCCOCCOCCOCCO` [3,6,9,12-tetraoxatridecanol] the value was 456 ± 7.1 J/K/mol.
Same read-out and setting: for `CCOCCOCCO` [3,6-dioxa-1-octanol] the value was 311.2 ± 4.8 J/K/mol; for `CCCOCCOCCO` [2-(2-propoxyethoxy)ethanol], 341.1 ± 5.3 J/K/mol.
With `CCCCOCCOCCO` [3,6-dioxa-1-decanol], the “molar heat capacity at constant pressure” value is listed as 373.8 ± 5.8 J/K/mol.

Still in this data set, the particulars now being: 329.15 K; 101.33 kPa; Liquid; Large sample (1 g) DSC.
For the compound `CCCCCCCCOCCOCCOCCO` [2-[2-[2-(octyloxy)ethoxy]ethoxy]ethanol], the “molar heat capacity at constant pressure” value is reported as 591.6 ± 9.2 J/K/mol.
Take `CCCOCCO` [2-propoxyethanol]: the “molar heat capacity at constant pressure” value was 255.2 ± 4 J/K/mol.
`COCCOCCOCCOCCO` [3,6,9,12-tetraoxatridecanol]: the “molar heat capacity at constant pressure” value is reported as 456.6 ± 7.1 J/K/mol.
On the same count and under the same terms, for `CCOCCOCCO` [3,6-dioxa-1-octanol] the value was 312 ± 4.8 J/K/mol; for `CCCOCCOCCO` [2-(2-propoxyethoxy)ethanol], 342 ± 5.3 J/K/mol; for `CCCCOCCOCCO` [3,6-dioxa-1-decanol], 374.8 ± 5.8 J/K/mol.

The same data set, now with this note: 331.15 K; 101.33 kPa; Liquid; Large sample (1 g) DSC.
Consider `CCCCCCCCOCCOCCOCCO` [2-[2-[2-(octyloxy)ethoxy]ethoxy]ethanol], for which the “molar heat capacity at constant pressure” value worked out at 592.9 ± 9.2 J/K/mol.
With `CCCOCCO` [2-propoxyethanol], the “molar heat capacity at constant pressure” value amounted to 256.1 ± 4 J/K/mol.
With `COCCOCCOCCOCCO` [3,6,9,12-tetraoxatridecanol], the “molar heat capacity at constant pressure” value came out at 457.3 ± 7.1 J/K/mol.
The same measure, in the same setting: to `CCOCCOCCO` [3,6-dioxa-1-octanol] belongs 312.8 ± 4.8 J/K/mol.
The same measure, in the same setting: for `CCCOCCOCCO` [2-(2-propoxyethoxy)ethanol] the value was 342.9 ± 5.3 J/K/mol; for `CCCCOCCOCCO` [3,6-dioxa-1-decanol], 375.8 ± 5.8 J/K/mol.

The data set is the same for the next values; noted with them: 333.15 K; 101.33 kPa; Liquid; Large sample (1 g) DSC.
With `CCCCCCCCOCCOCCOCCO` [2-[2-[2-(octyloxy)ethoxy]ethoxy]ethanol], the “molar heat capacity at constant pressure” value worked out at 594.3 ± 9.2 J/K/mol.
`CCCOCCO` [2-propoxyethanol]: the “molar heat capacity at constant pressure” value amounted to 257.1 ± 4 J/K/mol.
Turning to `COCCOCCOCCOCCO` [3,6,9,12-tetraoxatridecanol], the “molar heat capacity at constant pressure” value came out at 458 ± 7.1 J/K/mol.
The same measure, in the same setting: for `CCOCCOCCO` [3,6-dioxa-1-octanol] the value was 313.6 ± 4.9 J/K/mol; for `CCCOCCOCCO` [2-(2-propoxyethoxy)ethanol], 343.8 ± 5.3 J/K/mol; for `CCCCOCCOCCO` [3,6-dioxa-1-decanol], 376.9 ± 5.8 J/K/mol.

The data set is the same for the next values; noted with them: 335.15 K; 101.33 kPa; Liquid; Large sample (1 g) DSC.
Take `CCCCCCCCOCCOCCOCCO` [2-[2-[2-(octyloxy)ethoxy]ethoxy]ethanol]: the “molar heat capacity at constant pressure” value came out at 595.6 ± 9.2 J/K/mol.
In the case of `CCCOCCO` [2-propoxyethanol], the “molar heat capacity at constant pressure” value was determined as 258 ± 4 J/K/mol.
The same measure, in the same setting: for `COCCOCCOCCOCCO` [3,6,9,12-tetraoxatridecanol] the value was 458.7 ± 7.1 J/K/mol; for `CCOCCOCCO` [3,6-dioxa-1-octanol], 314.4 ± 4.9 J/K/mol.
On the same count and under the same terms, for `CCCOCCOCCO` [2-(2-propoxyethoxy)ethanol] the value was 344.7 ± 5.3 J/K/mol; for `CCCCOCCOCCO` [3,6-dioxa-1-decanol], 377.9 ± 5.9 J/K/mol.

Still in this data set, the particulars now being: 337.15 K; 101.33 kPa; Liquid; Large sample (1 g) DSC.
As to `CCCCCCCCOCCOCCOCCO` [2-[2-[2-(octyloxy)ethoxy]ethoxy]ethanol], the “molar heat capacity at constant pressure” value was 597 ± 9.2 J/K/mol.
Same read-out and setting: for `CCCOCCO` [2-propoxyethanol] the value was 258.9 ± 4 J/K/mol.
`COCCOCCOCCOCCO` [3,6,9,12-tetraoxatridecanol]: the “molar heat capacity at constant pressure” value is reported as 459.4 ± 7.1 J/K/mol.
Still for that read-out and setting: to `CCOCCOCCO` [3,6-dioxa-1-octanol] belongs 315.2 ± 4.9 J/K/mol; to `CCCOCCOCCO` [2-(2-propoxyethoxy)ethanol], 345.6 ± 5.4 J/K/mol; to `CCCCOCCOCCO` [3,6-dioxa-1-decanol], 379 ± 5.9 J/K/mol.

Still in this data set, the particulars now being: 339.15 K; 101.33 kPa; Liquid; Large sample (1 g) DSC.
For the compound `CCCCCCCCOCCOCCOCCO` [2-[2-[2-(octyloxy)ethoxy]ethoxy]ethanol], the “molar heat capacity at constant pressure” value was determined as 598.4 ± 9.3 J/K/mol.
As to `CCCOCCO` [2-propoxyethanol], the “molar heat capacity at constant pressure” value was found to be 259.9 ± 4 J/K/mol.
`COCCOCCOCCOCCO` [3,6,9,12-tetraoxatridecanol]: the “molar heat capacity at constant pressure” value came to 460.1 ± 7.1 J/K/mol.
For the compound `CCOCCOCCO` [3,6-dioxa-1-octanol], the “molar heat capacity at constant pressure” value worked out at 316.1 ± 4.9 J/K/mol.
Same read-out and setting: for `CCCOCCOCCO` [2-(2-propoxyethoxy)ethanol] the value was 346.5 ± 5.4 J/K/mol; for `CCCCOCCOCCO` [3,6-dioxa-1-decanol], 380.1 ± 5.9 J/K/mol.
